What is called half-life is the time in which the quantity being followed falls by half. Read a low half-life as rapid decline. The term logD denotes the decadic logarithm of the distribution of all forms, ionised or not, between an organic phase and buffer at a given pH. A higher logD goes with higher lipophilicity.

Structures are written as SMILES. Values joined by “and” are separate entries in the source; they are usually repeats but may differ in a detail not shown here. Equal values may be shown once.

For series [1] the following is noted: pH 1.3.
Description: Observed rate constant at a pH of 1.3
For series [2] the following is noted: human, plasma.
Description: (§1) Observed rate constant in 80% human plasma at 37 degree Centigrade
The conditions of series [3]: pH 7.4.
Description: Observed rate constant at a pH of 7.4
The nature of series [4]: physchem. Conditions: dog, in vivo, pH 7.4.
Description: Half life period at a pH 7.4 was determined
The species entered for series [5] is Rattus norvegicus.
Description: Observed rate constant in 80% rat plasma at 37 degree Centigrade
The nature of series [6]: in vitro. To be noted: rat, 80% rat plasma.
Description: Half life period in 80% rat plasma at 37 degree Centigrade
Series [7] is described as follows: physchem. Conditions: octanol/phosphate buffer, pH 7.4.
Description: Partition coefficient value in octanol and phosphate buffer (log P) at pH of 7.4 was determined.
The conditions of series [8]: human, plasma. This is another data set of the same source.
Description: (§2) Half life period in 80% human plasma at 37 degree Centigrade
For series [9] the following is noted: human, plasma. The source holds these as a separate data set.
Description: as §1
Series [10] can be described thus: physchem. Conditions: pH 1.3.
Description: Half life period at a pH 1.3 was determined
Series [11] is described as follows: in vitro. Conditions: human, 80% human plasma, T1/2.
Description: as §2

Consider `COC(=O)[C@H](Cc1ccc(OC(C)=O)c(OC(C)=O)c1)NC(=O)N[C@@H](Cc1ccc(OC(C)=O)c(OC(C)=O)c1)C(=O)OC`, for which the K obs in series [1] turned out to be 0.042 h⁻¹; in series [3], 0.049 h⁻¹; in series [5], 0.028 min⁻¹. The compound also had a k1 obs in series [2] of 0.0068 min⁻¹. Further, the half-life in [4] was 14.2 h; in series [6] it was 0.407 h; in series [10] it was 16.5 h. Also, the logD in series [7] came to 1.04. Moreover, in [8], the T1/2 is 1.698 h and 4.62 h. The compound further had a k2 obs in series [9] of 0.0025 min⁻¹.
For the compound `COC(=O)[C@H](Cc1ccc(OC(C)=O)c(OC(C)=O)c1)NC(=O)C(=O)N[C@@H](Cc1ccc(OC(C)=O)c(OC(C)=O)c1)C(=O)OC`, the half-life in [11] is 1.38 h; in series [4], 14.2 h; in series [6], 0.102 h; in series [10], 20 h. Further, the K obs came out at 0.032 h⁻¹ in series [1], 0.049 h⁻¹ in series [3] and 0.11 min⁻¹ in series [5]. The same compound showed a k1 obs in series [2] of 0.0083 min⁻¹. Besides, the logD in series [7] came to 0.73. In series [8], this compound came in with a T1/2 of 2.547 h. The compound also gave a k2 obs in series [9] of 0.0045 min⁻¹.
As to `COC(=O)[C@H](Cc1ccc(OC(C)=O)c(OC(C)=O)c1)NC(=O)CCCC(=O)N[C@@H](Cc1ccc(OC(C)=O)c(OC(C)=O)c1)C(=O)OC`, the K obs in series [1] worked out at 0.01 h⁻¹; in series [3] it was 0.05 h⁻¹; in series [5], 0.24 min⁻¹. For the same compound, the k1 obs in series [2] was determined as 0.011 min⁻¹. Besides, the half-life in series [4] was 13.9 h; in [6], 0.0483 h; in series [10], 68.1 h. In addition, in [7], the logD was determined as 0.87. In addition, the T1/2 in series [8] is 1.05 h and 2.57 h. In series [9], this compound registered a k2 obs of 0.0045 min⁻¹.
With `COC(=O)[C@H](Cc1ccc(OC(C)=O)c(OC(C)=O)c1)NC(=O)CCC(=O)N[C@@H](Cc1ccc(OC(C)=O)c(OC(C)=O)c1)C(=O)OC`, the K obs in series [1] amounted to 0.13 h⁻¹; in [3], 0.043 h⁻¹; in [5] it was 0.34 min⁻¹. In series [2], this compound had a k1 obs of 0.052 min⁻¹. Moreover, the results for the half-life in [4], in series [6] and in series [10] were 16.2 h, 0.0333 h and 55.4 h, respectively. Also, the pH-dependent lipophilicity (logD) in series [7] came to 0.85. The compound also came in with a k2 obs in series [9] of 0.0086 min⁻¹.
Take `COC(=O)[C@H](Cc1ccc(OC(C)=O)c(OC(C)=O)c1)NC(=O)CCCCC(=O)N[C@@H](Cc1ccc(OC(C)=O)c(OC(C)=O)c1)C(=O)OC`: the figures for the K obs in [1], in [3] and in series [5] were 0.014 h⁻¹, 0.04 h⁻¹ and 0.17 min⁻¹, respectively. In addition, in series [2], the k1 obs came out at 0.081 min⁻¹. For the same compound, the results for the half-life in [4], in series [6] and in series [10] were 17.3 h, 0.0683 h and 48.8 h, respectively. Also, the logD in series [7] is 0.92. This compound also came in with a k2 obs in series [9] of 0.01 min⁻¹.
